What was measured:
[1] = target: T1, Squalene synthase (Homo sapiens, UniProt P37268); experiment: Inhibition of squalene synthase
T1 sequence (P37268 whole entry): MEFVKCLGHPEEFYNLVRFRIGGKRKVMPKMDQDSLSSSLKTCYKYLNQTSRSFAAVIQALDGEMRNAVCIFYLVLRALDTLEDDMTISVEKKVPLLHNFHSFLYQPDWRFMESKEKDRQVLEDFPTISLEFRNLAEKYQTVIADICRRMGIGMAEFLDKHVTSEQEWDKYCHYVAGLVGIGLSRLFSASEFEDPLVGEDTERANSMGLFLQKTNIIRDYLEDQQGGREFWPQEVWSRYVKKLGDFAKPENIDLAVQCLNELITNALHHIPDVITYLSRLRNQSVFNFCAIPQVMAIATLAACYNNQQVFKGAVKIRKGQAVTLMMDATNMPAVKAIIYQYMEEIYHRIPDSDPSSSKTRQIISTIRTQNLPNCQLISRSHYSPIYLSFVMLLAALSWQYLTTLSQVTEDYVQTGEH

[2] = target: T2, Squalene synthase (Rattus norvegicus, UniProt Q02769); experiment: Inhibition of rat squalene synthase
T2 sequence (Q02769 whole entry): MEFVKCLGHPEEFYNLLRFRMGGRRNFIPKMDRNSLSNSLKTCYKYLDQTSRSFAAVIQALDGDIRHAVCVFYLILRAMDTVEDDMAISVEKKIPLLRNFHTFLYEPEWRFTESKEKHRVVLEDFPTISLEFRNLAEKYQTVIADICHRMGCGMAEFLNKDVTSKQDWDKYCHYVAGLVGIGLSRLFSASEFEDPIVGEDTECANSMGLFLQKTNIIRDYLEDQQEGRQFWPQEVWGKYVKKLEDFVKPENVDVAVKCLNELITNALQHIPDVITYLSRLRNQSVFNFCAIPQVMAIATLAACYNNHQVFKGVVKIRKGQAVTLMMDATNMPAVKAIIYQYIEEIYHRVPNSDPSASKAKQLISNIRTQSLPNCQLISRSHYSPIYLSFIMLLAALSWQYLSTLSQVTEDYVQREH

Row | Structure (SMILES) | IC50 [1] [nM] | Ki [2] [nM]
1 | CCCCCCC[C@@H](CCC[C@]12O[C@H](C(=O)O)[C@@](O)(C(=O)O)[C@](C(=O)O)(O1)[C@H](OC(=O)CC/C=C/[C@@H](C)CCCc1ccccc1)[C@H]2O)OC(C)=O [ZARAGOZIC ACID F] | 2 | –
2 | C[C@H](/C=C/CCC(=O)O[C@@H]1[C@@H](O)[C@@]2(CC/C=C/[C@H](C)CCCc3ccccc3)O[C@H](C(=O)O)[C@@](O)(C(=O)O)[C@]1(C(=O)O)O2)CCCc1ccccc1 [ZARAGOZIC ACID E] | 4 | –
3 | CC(=O)O[C@H](CCC[C@]12O[C@H](C(=O)O)[C@@](O)(C(=O)O)[C@](C(=O)O)(O1)[C@H](OC(=O)CC/C=C/[C@H](C)CCCc1ccccc1)[C@H]2O)[C@H](C)Cc1ccccc1 [ZARAGOZIC ACID C] | 0.3 | 0.045
4 | C[C@@H](CCCC[C@]12O[C@H](C(=O)O)[C@@](O)(C(=O)O)[C@](C(=O)O)(O1)[C@H](OC(=O)CC/C=C/[C@@H](C)CCCc1ccccc1)[C@H]2O)Cc1ccccc1 | 0.2 | –

From ChEMBL document CHEMBL1151666, “Novel Zaragozic Acids from Leptodontidium elatius” (J Nat Prod, 1996)
